First: COc1ccc(NS(=O)(=O)c2ccc(NC3=C(Cl)C(=O)c4ccccc4C3=O)cc2)cc1 [Compound 13f, 4-(3-chloro-1,4-dioxo-1,4-dihydro-naphthalen-2-ylamino)-N-(4-methoxy-phenyl)-benzenesulfonamide]
Second: Cc1ccc(NS(=O)(=O)c2ccc(NC3=C(Cl)C(=O)c4ccccc4C3=O)cc2)cc1 [Compound 13g, 4-(3-chloro-1,4-dioxo-1,4-dihydro-naphthalen-2-ylamino)-N-p-tolyl-benzenesulfonamide]
The melting point of the first is lower: 233 to 234 °C for the first, 257 to 260 °C for the second.

Compared with `O=C1C(Cl)=C(N(Cc2ccc(C(F)(F)F)cc2)c2ccc(S(=O)(=O)Nc3ccccn3)cc2)C(=O)c2ccccc21` [Compound 6h, 4-((3-chloro-1,4-dioxo-1,4-dihydronaphthalen-2-yl)(4-(trifluoromethyl)benzyl)amino)-N-(pyridin-2-yl)benzenesulfonamide], `Cc1ccc(CN(C2=C(Cl)C(=O)c3ccccc3C2=O)c2ccc(S(=O)(=O)Nc3ccccn3)cc2)cc1` [Compound 6g, 4-((3-chloro-1,4-dioxo-1,4-dihydronaphthalen-2-yl)(4-methylbenzyl)amino)-N-(pyridin-2-yl)benzenesulfonamide] is lower in melting point: 157 to 159 °C for the first, 99 to 101 °C for the second.

First: CC1=C(Nc2ccc(S(=O)(=O)Nc3ccccn3)cc2)C(=O)c2ccccc2C1=O [Compound 2k, 4-(3-methyl-1,4-dioxo-1,4-dihydronaphthalen-2-ylamino)-N-(pyridin-2-yl)benzenesulfonamide]
Second: CN(C)C1=C(Nc2ccc(S(=O)(=O)Nc3ccccn3)cc2)C(=O)c2ccccc2C1=O [Compound 3a, 4-(3-(dimethylamino)-1,4-dioxo-1,4-dihydronaphthalen-2-ylamino)-N-(pyridin-2-yl)-benzenesulfonamide]
The melting point of the first is higher: 220 to 222 °C for the first, 118 to 120 °C for the second.

First: COc1ccccc1NS(=O)(=O)c1ccc(NC2=C(Cl)C(=O)c3ccccc3C2=O)cc1 [Compound 13d, 4-(3-chloro-1,4-dioxo-1,4-dihydro-naphthalen-2-ylamino)-N-(2-methoxy-phenyl)-benzenesulfonamide]
Second: COc1cccc(NS(=O)(=O)c2ccc(NC3=C(Cl)C(=O)c4ccccc4C3=O)cc2)c1 [Compound 13e, 4-(3-chloro-1,4-dioxo-1,4-dihydro-naphthalen-2-ylamino)-N-(3-methoxy-phenyl)-benzenesulfonamide]
The melting point of the first is lower: 198 to 201 °C for the first, 213 to 216 °C for the second.

First: O=C1C(Nc2ccc(S(=O)(=O)Nc3ccccn3)cc2)=C(N2CCOCC2)C(=O)c2ccccc21 [Compound 3e, 4-(3-morpholino-1,4-dioxo-1,4-dihydronaphthalen-2-ylamino)-N-(pyridin-2-yl)benzenesulfonamide]
Second: CN1CCN(C2=C(Nc3ccc(S(=O)(=O)Nc4ccccn4)cc3)C(=O)c3ccccc3C2=O)CC1 [Compound 3c, 4-(3-(4-methylpiperazin-1-yl)-1,4-dioxo-1,4-dihydronaphthalen-2-ylamino)-N-(pyridin-2-yl)-benzenesulfonamide]
The melting point of the first is lower: 220 to 222 °C for the first, 222 to 224 °C for the second.

Compared with `CN(C1=C(Cl)C(=O)c2ccccc2C1=O)c1ccc(S(=O)(=O)Nc2ccccn2)cc1` [Compound 6a, 4-((3-chloro-1,4-dioxo-1,4-dihydronaphthalen-2-yl)(methyl)amino)-N-(pyridin-2-yl)benzenesulfonamide], `CCN(C1=C(Cl)C(=O)c2ccccc2C1=O)c1ccc(S(=O)(=O)Nc2ccccn2)cc1` [Compound 6b, 4-((3-chloro-1,4-dioxo-1,4-dihydronaphthalen-2-yl)(ethyl)amino)-N-(pyridin-2-yl)benzenesulfonamide] is higher in melting point: 152 to 154 °C for the first, 180 to 182 °C for the second.

Compared with `O=C(NS(=O)(=O)c1ccc(NC2=CC(=O)c3ccccc3C2=O)cc1)c1ccccc1` [Compound 2p, N-(4-(1,4-dioxo-1,4-dihydronaphthalen-2-ylamino)phenylsulfonyl)benzamide], `O=C(NS(=O)(=O)c1ccc(NC2=C(Cl)C(=O)c3ccccc3C2=O)cc1)c1ccccc1` [Compound 2c, N-(4-(3-chloro-1,4-dioxo-1,4-dihydronaphthalen-2-ylamino)phenylsulfonyl)benzamide] is lower in melting point: 294 to 296 °C for the first, 216 to 217 °C for the second.

Compared with `O=C1C(Cl)=C(N(Cc2ccc([N+](=O)[O-])cc2)c2ccc(S(=O)(=O)Nc3ccccn3)cc2)C(=O)c2ccccc21` [Compound 6e, 4-((3-chloro-1,4-dioxo-1,4-dihydronaphthalen-2-yl)(4-nitrobenzyl)amino)-N-(pyridin-2-yl)benzenesulfonamide], `O=C1C(Cl)=C(N(Cc2ccccc2)c2ccc(S(=O)(=O)Nc3ccccn3)cc2)C(=O)c2ccccc21` [Compound 6d, 4-(benzyl(3-chloro-1,4-dioxo-1,4-dihydronaphthalen-2-yl)amino)-N-(pyridin-2-yl)benzenesulfonamide] is lower in melting point: 80 to 82 °C for the first, 78 to 80 °C for the second.

Compared with `COc1cc(NS(=O)(=O)c2ccc(NC3=C(Cl)C(=O)c4ccccc4C3=O)cc2)nc(OC)n1` [Compound 2i, 4-(3-chloro-1,4-dioxo-1,4-dihydronaphthalen-2-ylamino)-N-(2,6-dimethoxypyrimidin-4-yl)-benzenesulfonamide], `COc1cc(NS(=O)(=O)c2ccc(NC3=C(C)C(=O)c4ccccc4C3=O)cc2)nc(OC)n1` [Compound 2n, N-(2,6-dimethoxypyrimidin-4-yl)-4-(3-methyl-1,4-dioxo-1,4-dihydronaphthalen-2-ylamino)-benzenesulfonamide] is higher in melting point: 220 to 222 °C for the first, 255 to 257 °C for the second.

Compared with `COc1cc(NC2=C(Cl)C(=O)c3ccccc3C2=O)ccc1S(=O)(=O)Nc1ccc(C)cc1` [Compound 13i, 4-(3-chloro-1,4-dioxo-1,4-dihydro-naphthalen-2-ylamino)-2-methoxy-N-p-tolyl-benzenesulfonamide], `COc1ccc(NS(=O)(=O)c2ccc(NC3=C(Cl)C(=O)c4ccccc4C3=O)cc2OC)cc1` [Compound 13j, 4-(3-chloro-1,4-dioxo-1,4-dihydro-naphthalen-2-ylamino)-2-methoxy-N-(4-methoxy-phenyl)-benzenesulfonamide] is lower in melting point: 186 to 189 °C for the first, 165 to 167 °C for the second.

Compared with `Cc1ccnc(NS(=O)(=O)c2ccc(NC3=C(Cl)C(=O)c4ccccc4C3=O)cc2)n1` [Compound 2j, 4-(3-chloro-1,4-dioxo-1,4-dihydronaphthalen-2-ylamino)-N-(4-methylpyrimidin-2-yl)-benzenesulfonamide], `COc1cnc(NS(=O)(=O)c2ccc(NC3=C(Cl)C(=O)c4ccccc4C3=O)cc2)nc1` [Compound 2e, 4-(3-chloro-1,4-dioxo-1,4-dihydronaphthalen-2-ylamino)-N-(5-methoxypyrimidin-2-yl)benzenesulfonamide] is higher in melting point: 246 to 248 °C for the first, 269 to 271 °C for the second.

First: CCCCN(C1=C(Cl)C(=O)c2ccccc2C1=O)c1ccc(S(=O)(=O)Nc2ccccn2)cc1 [Compound 6c, 4-(butyl(3-chloro-1,4-dioxo-1,4-dihydronaphthalen-2-yl)amino)-N-(pyridin-2-yl)benzenesulfonamide]
Second: O=C1C(Cl)=C(N(Cc2ccc3ccccc3c2)c2ccc(S(=O)(=O)Nc3ccccn3)cc2)C(=O)c2ccccc21 [Compound 6f, 4-((3-chloro-1,4-dioxo-1,4-dihydronaphthalen-2-yl)(naphthalen-2-ylmethyl)amino)-N-(pyridin-2-yl)benzenesulfonamide]
The melting point of the first is higher: 181 to 183 °C for the first, 165 to 167 °C for the second.

First: Cc1cccc(NS(=O)(=O)c2ccc(NC3=C(Cl)C(=O)c4ccccc4C3=O)cc2)c1 [Compound 13c, 4-(3-chloro-1,4-dioxo-1,4-dihydro-naphthalen-2-ylamino)-N-m-tolyl-benzenesulfonamide]
Second: O=C1C(Cl)=C(Nc2ccc(S(=O)(=O)Nc3ccccc3)cc2)C(=O)c2ccccc21 [Compound 13b, 4-(3-chloro-1,4-dioxo-1,4-dihydro-naphthalen-2-ylamino)-N-phenyl-benzenesulfonamide]
The melting point of the first is higher: 234 to 237 °C for the first, 220 to 223 °C for the second.

Compared with `COc1cnc(NS(=O)(=O)c2ccc(NC3=C(C)C(=O)c4ccccc4C3=O)cc2)nc1` [Compound 2m, N-(5-methoxypyrimidin-2-yl)-4-(3-methyl-1,4-dioxo-1,4-dihydronaphthalen-2-ylamino)-benzenesulfonamide], `CC1=C(Nc2ccc(S(=O)(=O)NC(=O)c3ccccc3)cc2)C(=O)c2ccccc2C1=O` [Compound 2l, N-(4-(3-methyl-1,4-dioxo-1,4-dihydronaphthalen-2-ylamino)phenylsulfonyl)benzamide] is higher in melting point: 215 to 217 °C for the first, 235 to 237 °C for the second.

First: N=C(N)NS(=O)(=O)c1ccc(NC2=C(Cl)C(=O)c3ccccc3C2=O)cc1 [YG1-084, N-carbamimidoyl-4-(3-chloro-1,4-dioxo-1,4-dihydronaphthalen-2-ylamino)benzene-sulfonamide]
Second: COc1cc(NC2=C(Cl)C(=O)c3ccccc3C2=O)ccc1S(=O)(=O)Nc1cccc(C)c1 [Compound 13k, 4-(3-chloro-1,4-dioxo-1,4-dihydro-naphthalen-2-ylamino)-2-methoxy-N-m-tolyl-benzenesulfonamide]
The melting point of the first is higher: 294 to 295 °C for the first, 264 to 267 °C for the second.

First: COc1cc(NC2=C(Cl)C(=O)c3ccccc3C2=O)ccc1S(=O)(=O)Nc1ccccc1C [Compound 13h, 4-(3-chloro-1,4-dioxo-1,4-dihydro-naphthalen-2-ylamino)-2-methoxy-N-o-tolyl-benzenesulfonamide]
Second: CN(Cc1ccccc1)C1=C(Nc2ccc(S(=O)(=O)Nc3ccccn3)cc2)C(=O)c2ccccc2C1=O [Compound 3b, 4-(3-(benzyl(methyl)amino)-1,4-dioxo-1,4-dihydronaphthalen-2-ylamino)-N-(pyridin-2-yl)-benzenesulfonamide]
The melting point of the first is higher: 197 to 200 °C for the first, 135 to 140 °C for the second.

With `Cc1cc(C)nc(NS(=O)(=O)c2ccc(NC3=C(Cl)C(=O)c4ccccc4C3=O)cc2)n1` [Compound 2g, 4-(3-chloro-1,4-dioxo-1,4-dihydronaphthalen-2-ylamino)-N-(4,6-dimethylpyrimidin-2-yl)benzenesulfonamide] the melting point was 210 °C (dec.).
In the case of `O=C1C=C(Nc2ccc(S(=O)(=O)Nc3ccccn3)cc2)C(=O)c2ccccc21` [Compound 2r, 4-(1,4-dioxo-1,4-dihydronaphthalen-2-ylamino)-N-(pyridin-2-yl)benzenesulfonamide], the melting point is reported as 286 °C (dec.).

Source: patent publication US8673910B2, “Proteasome inhibitors for selectively inducing apoptosis in cancer cells” (H. Lee Moffitt Cancer Center and Research Institute, priority 2008, dated 2014)
